Source: patent publication US10815230B2, “Casein kinase 1 delta inhibitor” (ELECTROPHORETICS LIMITED, priority 2015, dated 2020)

Tests used:
NEK11 = NEK11 (Homo sapiens, UniProt Q8NG66); test: KINOMEscan binding assay; conditions: read-out: % Ctrl @ 10000 nM
EGFR (T790M) = EGFR (T790M) (Homo sapiens, UniProt P00533, T790M); test: KINOMEscan binding assay; conditions: read-out: % Ctrl @ 10000 nM
AMPK-alpha1 = AMPK-alpha1 (Homo sapiens, UniProt Q13131); test: KINOMEscan binding assay; conditions: read-out: % Ctrl @ 10000 nM
Chain of AMPK-alpha1 (Q13131 whole entry): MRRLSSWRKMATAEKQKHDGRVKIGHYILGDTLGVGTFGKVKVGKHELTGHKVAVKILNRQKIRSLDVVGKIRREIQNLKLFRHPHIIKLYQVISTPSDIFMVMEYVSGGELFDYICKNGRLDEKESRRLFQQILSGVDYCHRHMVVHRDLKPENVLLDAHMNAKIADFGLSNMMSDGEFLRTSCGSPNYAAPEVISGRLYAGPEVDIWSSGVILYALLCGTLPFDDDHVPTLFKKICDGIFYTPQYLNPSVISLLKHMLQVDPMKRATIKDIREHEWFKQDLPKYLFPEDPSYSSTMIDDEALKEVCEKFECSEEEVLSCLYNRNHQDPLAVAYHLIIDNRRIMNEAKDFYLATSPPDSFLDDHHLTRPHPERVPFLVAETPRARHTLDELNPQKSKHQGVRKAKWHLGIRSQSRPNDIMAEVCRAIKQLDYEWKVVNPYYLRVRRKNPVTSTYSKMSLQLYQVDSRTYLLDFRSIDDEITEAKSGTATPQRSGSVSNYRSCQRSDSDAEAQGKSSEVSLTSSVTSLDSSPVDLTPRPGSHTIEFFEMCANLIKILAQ

[1] = target: ABL1 (Y253F) phosphorylated (Homo sapiens, UniProt P00519, Y253F); test: KINOMEscan binding assay; conditions: read-out: % Ctrl @ 10000 nM
GRK1 = GRK1 (Homo sapiens, UniProt Q15835); test: KINOMEscan binding assay; conditions: read-out: % Ctrl @ 10000 nM
TAOK2 = TAOK2 (Homo sapiens, UniProt Q9UL54); test: KINOMEscan binding assay; conditions: read-out: % Ctrl @ 10000 nM
Chain of TAOK2 (Q9UL54 whole entry): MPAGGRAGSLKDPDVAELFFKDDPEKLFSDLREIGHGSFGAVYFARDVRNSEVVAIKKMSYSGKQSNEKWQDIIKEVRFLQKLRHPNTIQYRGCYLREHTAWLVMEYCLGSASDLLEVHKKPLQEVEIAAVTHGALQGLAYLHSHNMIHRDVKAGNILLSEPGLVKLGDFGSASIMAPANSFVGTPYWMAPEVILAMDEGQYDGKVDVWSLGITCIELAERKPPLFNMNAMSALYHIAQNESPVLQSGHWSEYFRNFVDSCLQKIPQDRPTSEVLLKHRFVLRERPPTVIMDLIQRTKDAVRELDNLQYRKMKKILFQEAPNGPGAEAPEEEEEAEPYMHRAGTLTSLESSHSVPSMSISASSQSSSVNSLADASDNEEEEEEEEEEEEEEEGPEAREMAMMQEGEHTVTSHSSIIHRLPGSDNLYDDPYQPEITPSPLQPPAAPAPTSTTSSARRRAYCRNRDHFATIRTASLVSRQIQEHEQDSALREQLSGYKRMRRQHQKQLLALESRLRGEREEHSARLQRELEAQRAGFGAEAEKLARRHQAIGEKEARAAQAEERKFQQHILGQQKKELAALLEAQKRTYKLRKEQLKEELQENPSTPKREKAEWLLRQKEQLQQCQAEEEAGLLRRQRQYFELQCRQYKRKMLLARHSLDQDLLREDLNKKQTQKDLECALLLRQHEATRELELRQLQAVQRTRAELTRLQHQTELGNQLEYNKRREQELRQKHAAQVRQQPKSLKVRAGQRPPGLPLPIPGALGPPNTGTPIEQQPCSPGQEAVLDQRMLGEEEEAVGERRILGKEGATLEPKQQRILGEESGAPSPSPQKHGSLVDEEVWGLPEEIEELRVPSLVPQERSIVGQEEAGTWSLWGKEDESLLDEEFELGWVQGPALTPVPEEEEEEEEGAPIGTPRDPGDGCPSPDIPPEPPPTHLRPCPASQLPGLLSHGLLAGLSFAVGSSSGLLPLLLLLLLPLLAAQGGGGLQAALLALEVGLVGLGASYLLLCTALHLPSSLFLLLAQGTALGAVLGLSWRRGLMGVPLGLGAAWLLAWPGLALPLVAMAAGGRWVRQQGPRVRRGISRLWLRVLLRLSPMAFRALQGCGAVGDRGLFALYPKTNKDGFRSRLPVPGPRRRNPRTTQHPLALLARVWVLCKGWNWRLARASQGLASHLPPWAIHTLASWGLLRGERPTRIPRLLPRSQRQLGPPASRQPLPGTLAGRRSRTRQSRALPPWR

[2] = target: JAK2 (JH1domain-catalytic) (Homo sapiens, UniProt O60674); test: KINOMEscan binding assay; conditions: read-out: % Ctrl @ 10000 nM
Chain of JAK2 (JH1domain-catalytic) (O60674 849-1124 limits assumed): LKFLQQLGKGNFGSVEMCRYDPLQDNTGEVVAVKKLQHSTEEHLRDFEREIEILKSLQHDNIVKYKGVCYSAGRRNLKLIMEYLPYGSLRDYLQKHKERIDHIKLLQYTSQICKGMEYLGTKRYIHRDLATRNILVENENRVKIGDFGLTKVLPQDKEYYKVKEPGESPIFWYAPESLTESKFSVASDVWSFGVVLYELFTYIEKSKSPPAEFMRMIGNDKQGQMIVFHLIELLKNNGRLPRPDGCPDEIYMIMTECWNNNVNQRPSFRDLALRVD

MKK7 = MKK7 (Homo sapiens, UniProt O14733); test: KINOMEscan binding assay; conditions: read-out: % Ctrl @ 10000 nM
WEE2 = target: T1, WEE2 (Homo sapiens, UniProt P0C1S8); test: KINOMEscan binding assay; conditions: read-out: % Ctrl @ 10000 nM
T1 construct: purchased DiscoveRx (KINOMEscan, LeadHunter Discovery services)

STK39 = STK39 (Homo sapiens, UniProt Q9UEW8); test: KINOMEscan binding assay; conditions: read-out: % Ctrl @ 10000 nM
[3] = target: RSK4 Kin.Dom.2-C-terminal (Homo sapiens, UniProt Q9UK32); test: KINOMEscan binding assay; conditions: read-out: % Ctrl @ 10000 nM
WNK1 = target: T2, WNK1 (Homo sapiens, UniProt Q9H4A3); test: KINOMEscan binding assay; conditions: read-out: % Ctrl @ 10000 nM
T2 construct: purchased DiscoveRx (KINOMEscan, LeadHunter Discovery services)

[4] = target: RSK2 Kin.Dom.1-N-terminal (Homo sapiens, UniProt P51812); test: KINOMEscan binding assay; conditions: read-out: % Ctrl @ 10000 nM
Chain of RSK2 Kin.Dom.1-N-terminal (P51812 68-327 limits assumed): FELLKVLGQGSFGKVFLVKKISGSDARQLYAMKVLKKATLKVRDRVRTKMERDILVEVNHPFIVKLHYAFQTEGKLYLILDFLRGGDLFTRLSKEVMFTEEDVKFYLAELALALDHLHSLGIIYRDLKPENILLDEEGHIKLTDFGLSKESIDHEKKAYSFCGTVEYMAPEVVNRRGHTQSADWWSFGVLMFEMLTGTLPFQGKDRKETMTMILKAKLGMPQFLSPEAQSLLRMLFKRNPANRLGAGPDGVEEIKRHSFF

TRPM6 = TRPM6 (Homo sapiens, UniProt Q9BX84); test: KINOMEscan binding assay; conditions: read-out: % Ctrl @ 10000 nM
p38-alpha = p38-alpha (Homo sapiens, UniProt Q16539); test: KINOMEscan binding assay; conditions: read-out: % Ctrl @ 10000 nM
Chain of p38-alpha (Q16539 whole entry): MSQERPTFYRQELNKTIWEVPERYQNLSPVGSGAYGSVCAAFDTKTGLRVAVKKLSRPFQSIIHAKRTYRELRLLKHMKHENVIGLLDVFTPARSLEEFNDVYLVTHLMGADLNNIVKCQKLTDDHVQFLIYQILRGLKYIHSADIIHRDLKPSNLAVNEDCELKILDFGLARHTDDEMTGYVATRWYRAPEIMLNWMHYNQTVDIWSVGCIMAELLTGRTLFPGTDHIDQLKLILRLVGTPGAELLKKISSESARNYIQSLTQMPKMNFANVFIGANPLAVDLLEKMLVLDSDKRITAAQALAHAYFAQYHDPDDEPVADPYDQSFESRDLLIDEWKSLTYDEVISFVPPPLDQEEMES

CDC2L1 = CDC2L1 (Homo sapiens, UniProt P21127); test: KINOMEscan binding assay; conditions: read-out: % Ctrl @ 10000 nM
EPHA5 = EPHA5 (Homo sapiens, UniProt P54756); test: KINOMEscan binding assay; conditions: read-out: % Ctrl @ 10000 nM
CDC2L5 = CDC2L5 (Homo sapiens, UniProt Q14004); test: KINOMEscan binding assay; conditions: read-out: % Ctrl @ 10000 nM
NEK5 = NEK5 (Homo sapiens, UniProt Q6P3R8); test: KINOMEscan binding assay; conditions: read-out: % Ctrl @ 10000 nM
PIK3CD = PIK3CD (Homo sapiens, UniProt O00329); test: KINOMEscan binding assay; conditions: read-out: % Ctrl @ 10000 nM
Chain of PIK3CD (O00329 whole entry): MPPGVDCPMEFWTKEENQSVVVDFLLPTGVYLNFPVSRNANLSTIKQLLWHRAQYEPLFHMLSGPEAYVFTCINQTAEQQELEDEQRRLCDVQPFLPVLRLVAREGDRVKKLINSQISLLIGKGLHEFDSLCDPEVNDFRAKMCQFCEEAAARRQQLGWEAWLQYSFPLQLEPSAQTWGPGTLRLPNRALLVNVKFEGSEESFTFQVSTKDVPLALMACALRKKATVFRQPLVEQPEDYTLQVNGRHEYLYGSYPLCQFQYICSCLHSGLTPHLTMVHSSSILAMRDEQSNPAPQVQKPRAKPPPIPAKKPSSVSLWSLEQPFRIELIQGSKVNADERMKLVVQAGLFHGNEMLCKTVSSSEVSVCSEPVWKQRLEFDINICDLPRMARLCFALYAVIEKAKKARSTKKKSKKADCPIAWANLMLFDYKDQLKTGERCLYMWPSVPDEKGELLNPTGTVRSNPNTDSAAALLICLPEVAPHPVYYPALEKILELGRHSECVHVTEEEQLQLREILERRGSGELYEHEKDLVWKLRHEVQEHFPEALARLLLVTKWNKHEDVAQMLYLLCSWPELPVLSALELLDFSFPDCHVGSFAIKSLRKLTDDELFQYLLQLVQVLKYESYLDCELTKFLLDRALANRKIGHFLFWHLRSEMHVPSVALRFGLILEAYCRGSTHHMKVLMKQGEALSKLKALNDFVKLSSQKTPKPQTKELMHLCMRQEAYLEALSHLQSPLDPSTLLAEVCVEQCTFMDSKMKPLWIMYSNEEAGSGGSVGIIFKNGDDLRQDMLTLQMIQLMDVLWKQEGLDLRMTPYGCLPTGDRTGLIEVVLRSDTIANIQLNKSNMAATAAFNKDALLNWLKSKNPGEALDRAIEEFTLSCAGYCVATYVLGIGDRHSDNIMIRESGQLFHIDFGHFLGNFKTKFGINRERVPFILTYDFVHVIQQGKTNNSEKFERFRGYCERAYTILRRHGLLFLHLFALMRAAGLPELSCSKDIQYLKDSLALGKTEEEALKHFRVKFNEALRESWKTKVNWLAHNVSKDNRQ

JNK1 = JNK1 (Homo sapiens, UniProt P45983); test: KINOMEscan binding assay; conditions: read-out: % Ctrl @ 10000 nM
Chain of JNK1 (P45983 whole entry): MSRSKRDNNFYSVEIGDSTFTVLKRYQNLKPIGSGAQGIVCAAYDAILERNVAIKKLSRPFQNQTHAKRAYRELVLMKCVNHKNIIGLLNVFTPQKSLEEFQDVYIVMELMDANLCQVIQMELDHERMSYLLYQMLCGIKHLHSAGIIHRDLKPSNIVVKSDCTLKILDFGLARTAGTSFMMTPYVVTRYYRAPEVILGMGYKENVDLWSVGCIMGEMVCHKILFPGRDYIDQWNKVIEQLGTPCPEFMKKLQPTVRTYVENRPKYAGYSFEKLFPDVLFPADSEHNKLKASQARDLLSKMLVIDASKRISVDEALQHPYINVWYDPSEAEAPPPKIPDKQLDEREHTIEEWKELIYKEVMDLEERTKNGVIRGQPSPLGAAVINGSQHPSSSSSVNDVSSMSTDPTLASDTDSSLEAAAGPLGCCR

AKT3 = AKT3 (Homo sapiens, UniProt Q9Y243); test: KINOMEscan binding assay; conditions: read-out: % Ctrl @ 10000 nM
Chain of AKT3 (Q9Y243 whole entry): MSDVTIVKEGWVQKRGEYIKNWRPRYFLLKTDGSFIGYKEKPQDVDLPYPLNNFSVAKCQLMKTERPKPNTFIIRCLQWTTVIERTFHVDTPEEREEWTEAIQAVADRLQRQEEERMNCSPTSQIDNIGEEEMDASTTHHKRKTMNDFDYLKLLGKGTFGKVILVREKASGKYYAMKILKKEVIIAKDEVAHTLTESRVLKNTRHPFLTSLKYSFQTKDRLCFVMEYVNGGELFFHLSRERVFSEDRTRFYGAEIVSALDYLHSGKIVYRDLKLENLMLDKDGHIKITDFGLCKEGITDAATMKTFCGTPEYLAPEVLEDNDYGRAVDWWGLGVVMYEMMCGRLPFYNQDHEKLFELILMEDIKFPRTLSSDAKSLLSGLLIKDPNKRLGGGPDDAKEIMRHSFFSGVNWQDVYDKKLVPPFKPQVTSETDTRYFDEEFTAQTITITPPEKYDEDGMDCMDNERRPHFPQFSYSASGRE

PIM3 = PIM3 (Homo sapiens, UniProt Q86V86); test: KINOMEscan binding assay; conditions: read-out: % Ctrl @ 10000 nM
HepG2 cells = test: in vitro; conditions: human, 72 h
Experimental: (§1) The cytotoxicity screening panel was performed by Cyprotex® according to their established protocols. HepG2 cells were plated on 96-well tissue culture treated black walled clear bottomed polystyrene plates, 100 μL per well. The cells were dosed with compound A and comparative compound 324 (WO2012080727; 5-(1,3-benzoxazol-2-yl)-4-(pyridine-4-yl)pyrimidin-2-amine) amine) at […], 0.1 μM, 0.4 μM, 1.0 μM, 4.0 μM, 10 μM, 40 μM and 100 μM. At the end of the incubation period (72 h), the cells were loaded with the relevant dye/antibody for each cell health marker. The plates were then scanned using an automated fluorescent cellular imager, ArrayScan® VTI (Thermo Scientific Cellomics).
(§2) Cytotoxicity was assessed using a multiparametric approach using High Content Screening (HCS) O'Brien P and Haskins J R (2007) High Content Screening: A Powerful Approach to Systems Cell Biology and Drug Discovery Ed. Taylor et al.; 415-425). […] This assay scores compounds across direct and indirect measure of toxicity.

in vitro = conditions: human
Experimental: as §1, §2

SGK3 = SGK3 (Homo sapiens, UniProt Q96BR1); test: KINOMEscan binding assay; conditions: read-out: % Ctrl @ 10000 nM
DYRK1B = DYRK1B (Homo sapiens, UniProt Q9Y463); test: KINOMEscan binding assay; conditions: read-out: % Ctrl @ 10000 nM
RIPK2 = RIPK2 (Homo sapiens, UniProt O43353); test: KINOMEscan binding assay; conditions: read-out: % Ctrl @ 10000 nM
TSSK1B = TSSK1B (Homo sapiens, UniProt Q9BXA7); test: KINOMEscan binding assay; conditions: read-out: % Ctrl @ 10000 nM
Chain of TSSK1B (Q9BXA7 whole entry): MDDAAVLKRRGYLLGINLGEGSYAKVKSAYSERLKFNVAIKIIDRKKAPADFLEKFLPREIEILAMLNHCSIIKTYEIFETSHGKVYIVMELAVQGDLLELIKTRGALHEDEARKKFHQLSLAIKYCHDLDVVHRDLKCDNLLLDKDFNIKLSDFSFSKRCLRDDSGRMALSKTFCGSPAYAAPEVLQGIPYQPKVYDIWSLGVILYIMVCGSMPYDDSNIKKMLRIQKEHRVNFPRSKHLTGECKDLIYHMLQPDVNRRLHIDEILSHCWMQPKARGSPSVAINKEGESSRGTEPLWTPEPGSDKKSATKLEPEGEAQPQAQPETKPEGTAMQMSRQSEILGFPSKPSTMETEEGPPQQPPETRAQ

CDK7 = CDK7 (Homo sapiens, UniProt P50613); test: KINOMEscan binding assay; conditions: read-out: % Ctrl @ 10000 nM
[5] = target: JAK1 (JH2domain-pseudokinase) (Homo sapiens, UniProt P23458); test: KINOMEscan binding assay; conditions: read-out: % Ctrl @ 10000 nM
MLK1 = MLK1 (Homo sapiens, UniProt P80192); test: KINOMEscan binding assay; conditions: read-out: % Ctrl @ 10000 nM
SYK = SYK (Homo sapiens, UniProt P43405); test: KINOMEscan binding assay; conditions: read-out: % Ctrl @ 10000 nM
DDR1 = DDR1 (Homo sapiens, UniProt Q08345); test: KINOMEscan binding assay; conditions: read-out: % Ctrl @ 10000 nM
[6] = Cell membrane permeability AC50
[7] = Mitochondrial membrane potential AC50

Nc1ncc(-c2nc3ccccc3o2)c(-c2ccncc2)n1 [Comparative Compound 324, 5-(1,3-benzoxazol-2-yl)-4-(pyridine-4-yl)pyrimidin-2-amine]
remaining binding at 10 µM (NEK11): 86%
remaining binding at 10 µM (EGFR (T790M)): 88%
remaining binding at 10 µM (AMPK-alpha1): 98%
remaining binding at 10 µM [1]: 78%
remaining binding at 10 µM (GRK1): 68%
remaining binding at 10 µM (TAOK2): 98%
remaining binding at 10 µM [2]: 98%
remaining binding at 10 µM (MKK7): 100%
remaining binding at 10 µM (WEE2): 100%
remaining binding at 10 µM (STK39): 100%
remaining binding at 10 µM [3]: 35%
remaining binding at 10 µM (WNK1): 81%
remaining binding at 10 µM [4]: 80%
remaining binding at 10 µM (TRPM6): 53%
remaining binding at 10 µM (p38-alpha): 33%
remaining binding at 10 µM (CDC2L1): 91%
remaining binding at 10 µM (EPHA5): 100%
remaining binding at 10 µM (CDC2L5): 93%
remaining binding at 10 µM (NEK5): 100%
remaining binding at 10 µM (PIK3CD): 100%
remaining binding at 10 µM (JNK1): 52%
remaining binding at 10 µM (AKT3): 100%
remaining binding at 10 µM (PIM3): 94%
Cell membrane permeability MEC (HepG2 cells): (11.1↑) μM
Cytochrome c MEC (HepG2 cells): (22.2↑) μM
DNA structure MEC (HepG2 cells): (7.33↑) μM
Mitochondrial mass MEC (HepG2 cells): (16.8↓) μM
Mitochondrial membrane potential MEC (HepG2 cells): (17.2↑) μM
AC50 at 72 h (in vitro; Cell Count AC50): > 100 µM
AC50 at 72 h (in vitro; [6]): > 100 µM
AC50 at 72 h (in vitro; Cytochrome c AC50): 82 µM
AC50 at 72 h (in vitro; DNA structure AC50): > 100 µM
AC50 at 72 h (in vitro; Mitochondrial mass AC50): > 100 µM
AC50 at 72 h (in vitro; [7]): > 100 µM
AC50 at 72 h (in vitro; Nuclear size AC50): > 100 µM
remaining binding at 10 µM (SGK3): 94%
remaining binding at 10 µM (DYRK1B): 97%
remaining binding at 10 µM (RIPK2): 85%
remaining binding at 10 µM (TSSK1B): 100%
remaining binding at 10 µM (CDK7): 70%
remaining binding at 10 µM [5]: 17%
remaining binding at 10 µM (MLK1): 100%
remaining binding at 10 µM (SYK): 100%
remaining binding at 10 µM (DDR1): 94%

CNc1c(C(N)=O)c2ccccn2c1C(=O)c1ccc(F)cc1 [Compound A, 2-methyl-amino-3-[(4-fluorophenyl)carbonyl]indolizine-1-carboxamide]
remaining binding at 10 µM (NEK11): 88%
remaining binding at 10 µM (EGFR (T790M)): 65%
remaining binding at 10 µM (AMPK-alpha1): 91%
remaining binding at 10 µM [1]: 50%
remaining binding at 10 µM (GRK1): 53%
remaining binding at 10 µM (TAOK2): 80%
remaining binding at 10 µM [2]: 90%
remaining binding at 10 µM (MKK7): 100%
remaining binding at 10 µM (WEE2): 100%
remaining binding at 10 µM (STK39): 81%
remaining binding at 10 µM [3]: 6.6%
remaining binding at 10 µM (WNK1): 69%
remaining binding at 10 µM [4]: 59%
remaining binding at 10 µM (TRPM6): 69%
remaining binding at 10 µM (p38-alpha): 6%
remaining binding at 10 µM (CDC2L1): 85%
remaining binding at 10 µM (EPHA5): 70%
remaining binding at 10 µM (CDC2L5): 89%
remaining binding at 10 µM (NEK5): 91%
remaining binding at 10 µM (PIK3CD): 100%
remaining binding at 10 µM (JNK1): 45%
remaining binding at 10 µM (AKT3): 100%
remaining binding at 10 µM (PIM3): 90%
Cell Count MEC (HepG2 cells): 2.75↓ μM
Cell membrane permeability MEC (HepG2 cells): 1.26↑ μM
DNA structure MEC (HepG2 cells): 15.1↑ μM
Mitochondrial mass MEC (HepG2 cells): 1.34↑ μM
Mitochondrial membrane potential MEC (HepG2 cells): 3.31↓ μM
Nuclear size MEC (HepG2 cells): 2.44↑ μM
AC50 at 72 h (in vitro; Cell Count AC50): 7.88 µM
AC50 at 72 h (in vitro; [6]): > 40 µM
AC50 at 72 h (in vitro; Cytochrome c AC50): > 100 µM
AC50 at 72 h (in vitro; DNA structure AC50): > 100 µM
AC50 at 72 h (in vitro; Mitochondrial mass AC50): > 40 µM
AC50 at 72 h (in vitro; [7]): 43.4 µM
AC50 at 72 h (in vitro; Nuclear size AC50): 12.3 µM
remaining binding at 10 µM (SGK3): 98%
remaining binding at 10 µM (DYRK1B): 89%
remaining binding at 10 µM (RIPK2): 67%
remaining binding at 10 µM (TSSK1B): 100%
remaining binding at 10 µM (CDK7): 56%
remaining binding at 10 µM [5]: 71%
remaining binding at 10 µM (MLK1): 95%
remaining binding at 10 µM (SYK): 86%
remaining binding at 10 µM (DDR1): 2.6%
